Earlier results, collected in US6676966B1, “Extended release metformin hydrochloride formulations” (Intellipharmaceutics Corp., priority 2000, dated 2004).
Where a name gives a salt, the structure may show the parent alone.

Conditions: single 850 mg immediate release tablet with food vs same tablet without food

lower AUC in plasma with food: 25% | lower peak concentration in plasma with food: ~40% | prolongation of time to peak plasma concentration with food: 35 min
SMILES: CN(C)C(=N)N=C(N)N [metformin, Metformin hydrochloride]
